Results reported in PubChem BioAssay (NCI).
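Step 1: Grow cells in 96-well plates. Step 2: Expose to compound for 48 hours at 5 concentrations. Step 3: Interpolate endpoints linearly; if unreached, use highest concentration. At the GI50, growth is halved. TGI: concentration producing complete growth inhibition.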

Experiments:
Test in all cases: growth of human tumour cells (NCI), 48 h
[1] = test system: SF-268 CNS
[2] = test system: SNB-75 CNS
[3] = test system: SN12C renal
[4] = test system: HOP-62 NSCLC
[5] = test system: SNB-19 CNS
[6] = test system: COLO 205 colon
[7] = test system: A549 NSCLC
[8] = test system: UO-31 renal
[9] = test system: UACC-62 melanoma
[10] = test system: MALME-3M melanoma

Structure (SMILES)	GI50 [1] [µM]	TGI [1] [µM]	GI50 [2] [µM]	TGI [2] [µM]	GI50 [3] [µM]	TGI [3] [µM]	GI50 [4] [µM]	TGI [4] [µM]	GI50 [5] [µM]	TGI [5] [µM]	GI50 [6] [µM]	TGI [6] [µM]	GI50 [7] [µM]	TGI [7] [µM]	GI50 [8] [µM]	TGI [8] [µM]	GI50 [9] [µM]	TGI [9] [µM]	TGI [10] [µM]	GI50 [10] [µM]
COc1cc(-c2nn(-c3ccc(NC(=O)c4cc(Cl)cc(Cl)c4)cc3)cc2-c2ccncc2)ccc1Cl	> 100	> 100	4.14	> 100	> 100	> 100	32	> 100	> 100	> 100	6.61	> 100	> 100	> 100	6.86	> 100	4.58	> 100		
COc1cc([C@@H]2c3cc4c(cc3C[C@H]3COC(=O)[C@@H]32)OCO4)cc2c1OCO2		> 100		> 100		> 100		> 82				0.0149		> 100		> 100		> 100	> 100	
COc1cc2c(cc1OC)-c1ncc3cc4c(cc3c1C2)OCO4			64.1	> 100	> 100	> 100			60	> 100	61.1	> 100	34.2	> 100	23.1	63.7	> 100	> 100		
Cn1ccnc1C[N-]Cc1nccn1C.O=[N+]([O-])[O-].O=[N+]([O-])[O-].[Cu+2]	> 100	> 100	> 100	> 100	> 100	> 100	> 100	> 100	> 100	> 100	> 100	> 100	> 100	> 100			25.8	> 100		
COc1ccc2nc3cccc(C(=O)NCCN(C)C)c3nc2c1				21.6		4.93		3.76		19.6		> 24.3		> 100		> 100			2.69	
CCOC(=O)/N=c1/nc(N(C)C)ss1		> 100		> 100		> 100		> 100		> 100				> 100		> 100		> 100	> 100	
N#Cc1cccc(OCc2ccccc2COc2cccc(C#N)c2)c1	25	61.2	29.7	70.4	19	73.1			> 100	> 100	33.8	98.3	42.5	> 100	51.3	> 100	18.3	73	38	4.02
COc1cc(/C=N\O)nc(-c2ccccn2)c1		> 100		> 51.6						> 100		> 100		> 100		3.13		8.28	> 100	
COc1c(N2CCN(Cn3c(O)c(N=NC(=O)c4ccncc4)c4cc(F)ccc43)C(C)C2)c(F)cc2c(=O)c(C(=O)O)cn(C3CC3)c12 (stereo not given)	10.6	38.2	> 50	> 50	42.8	> 50	21.7	> 50	32.5	> 50	> 50	> 50	> 50	> 50	> 50	> 50	> 50	> 50		
Cc1ccc(NC(=O)CCC(=O)C(C#N)c2ccccc2)cc1C (stereo not given)		> 100				> 100				> 100		> 100		> 100		> 100		> 100	> 100	
O=C(c1ccccc1)C1C(C(=O)c2ccccc2)C(c2ccccc2)N(c2ccccc2)C1c1ccccc1 (stereo not given)		> 100				> 100		> 100		> 100		> 100		> 100		> 100		> 100	> 100	
CCCCOc1ccc(/C=N/Nc2cc(C)nc3ccc(Cl)cc23)cc1			1.75	3.33	1.63	3.08	1.62	3.28	1.81	3.3	2.01	4.03	1.86	3.44	1.56	2.93	1.61	3.02	3.38	1.85
CN1CCN(CCOc2ccc(-c3cnc4c(-c5ccc(F)cc5)cnn4c3)cc2)CC1	2.03	5.31	1.34	3.32	1.69	3.23	1.85	3.81	1.66	3.39			1.71	3.45	1.31	2.93	1.78	3.36	3.13	1.62
Cc1cc(O)c(C(c2ccncc2)c2c(O)cc(C)[nH]c2=O)c(=O)[nH]1		> 100				> 100		> 100		> 100		> 100		> 100		> 100		> 100	> 100	
O=C(Nc1cccc(C(F)(F)F)c1)c1cc(Br)cc(Br)c1O		> 10		> 10		> 10		> 10		> 10		9.71		9.56		8.51		> 10		
CN(C)CCNc1nc(-c2cccs2)cc(-c2cccs2)n1				68.2		27.4		40.7				27.9		32.4		23.6		37.4	30.9	
Cn1cc(NC(=O)c2cc(NC(=O)CCCCCCC(=O)Nc3cc(C(=O)Nc4cc(C(=O)NCCC(=N)N)n(C)c4)n(C)c3)cn2C)cc1C(=O)NCCC(=N)N		> 100		38.6		33.1				> 100		18.9		54.4		> 100		20.8	12.1	
CN(C)CC1CCCC/C1=N/OC(=O)c1ccc(Cl)c(Cl)c1 (stereo not given)		> 100		> 100		> 100		> 100				> 100		> 100		> 100		> 100	> 100	
